Measured values from the OPERA property sets (Mansouri et al. 2018).
In brackets after ≈: the same amount, converted by molar mass.

Settings: for solubility: 22 °C

A solubility of 2740 µM (≈ 710 µg/mL) was found for `C=CCN(CC=C)C(=O)COC(=O)c1ccccc1` in this work.

A logP of 1.24 was found for `CC(=O)N(C)CCOC(=O)c1ccccc1` in this work.

A solubility of 2870 µM (≈ 750 µg/mL) was found for `O=C(OCC(=O)N1CCCCCC1)c1ccccc1` in this work.

A logP of 1.58 and a solubility of 1360 µM (≈ 320 µg/mL) were found for `CC(=O)N(C)C(=O)COC(=O)c1ccccc1` in this work.

A logP of 0.2 was found for `NC(=O)C1CCCN1C(=O)COC(=O)c1ccccc1` (stereo not drawn) in this work.

A logP of 2.81 and a solubility of 125 µM (≈ 33 µg/mL) were found for `CCCCCCNC(=O)COC(=O)c1ccccc1` in this work.

A logP of 2.26 and a solubility of 1360 µM (≈ 320 µg/mL) were found for `CC(C)(C)NC(=O)COC(=O)c1ccccc1` in this work.

A logP of 2.3 was found for `CCN(CC)C(=O)C(C)OC(=O)c1ccccc1` (stereo not drawn) in this work.

A solubility of 16900 µM (≈ 4200 µg/mL) was found for `O=C(OCC(=O)N1CCOCC1)c1ccccc1` in this work.

A logP of 0.99 and a solubility of 19200 µM (≈ 3700 µg/mL) were found for `CNC(=O)COC(=O)c1ccccc1` in this work.

A logP of 2.98 was found for `CCCOC(=O)n1c(-c2cscn2)nc2ccccc21` in this work.

A solubility of 275 µM (≈ 80 µg/mL) was found for `CCCCN(CCCC)C(=O)COC(=O)c1ccccc1` in this work.

A logP of 2.5 was found for `CCCC(=O)OCOC(=O)c1ccccc1OC(C)=O` in this work.

A logP of 1.46 was found for `CC(=O)Oc1ccccc1C(=O)OCCN(C)C(C)=O` in this work.

A logP of 1.88 and a solubility of 2890 µM (≈ 640 µg/mL) were found for `CCCNC(=O)COC(=O)c1ccccc1` in this work.

A logP of 0.66 was found for `CC(O)CN(CC(C)O)C(=O)COC(=O)c1ccccc1` (stereo not drawn) in this work.

A logP of 0.69 and a solubility of 22900 µM (≈ 4100 µg/mL) were found for `NC(=O)COC(=O)c1ccccc1` in this work.

A logP of 0.63 and a solubility of 44800 µM (≈ 11800 µg/mL) were found for `O=C(OCC(=O)N1CCC(O)CC1)c1ccccc1` in this work.

A logP of 1.28 was found for `COCCN(CCOC)C(=O)COC(=O)c1ccccc1` in this work.

A solubility of 3150 µM (≈ 780 µg/mL) was found for `O=C(OCC(=O)N1CCCCC1)c1ccccc1` in this work.

A logP of 6.53 was found for `CCCCCCN(CCCCCC)C(=O)COC(=O)c1ccccc1` in this work.

A logP of 2.99 was found for `CCCCCCN(C)C(=O)COC(=O)c1ccccc1` in this work.

A logP of 1.24 and a solubility of 3980 µM (≈ 880 µg/mL) were found for `CC(=O)NC(=O)COC(=O)c1ccccc1` in this work.

A solubility of 8500 µM (≈ 2000 µg/mL) was found for `CCN(CC)C(=O)COC(=O)c1ccccc1` in this work.

A logP of 2.36 and a solubility of 1740 µM (≈ 410 µg/mL) were found for `CCCCNC(=O)COC(=O)c1ccccc1` in this work.

A logP of 0.79 was found for `O=C(OCC(=O)N1CCC1C(=O)O)c1ccccc1` (stereo not drawn) in this work.

A logP of 0.25 was found for `O=C(COC(=O)c1ccccc1)NC(CO)(CO)CO` in this work.

A solubility of 1920 µM (≈ 480 µg/mL) was found for `C[C@H](NC(=O)COC(=O)c1ccccc1)C(N)=O` in this work.

A solubility of 42500 µM (≈ 8800 µg/mL) was found for `CN(C)C(=O)COC(=O)c1ccccc1` in this work.

A logP of 1.73 and a solubility of 1850 µM (≈ 410 µg/mL) were found for `CC(C)NC(=O)COC(=O)c1ccccc1` in this work.

A logP of 1.28 and a solubility of 5790 µM (≈ 1200 µg/mL) were found for `CCNC(=O)COC(=O)c1ccccc1` in this work.

A logP of 0.42 was found for `CC(NC(=O)COC(=O)c1ccccc1)C(N)=O` (stereo not drawn) in this work.
